From patent US8669271B2 (Boehringer Ingelheim International GmbH, priority 2010, dated 2014)

Target: T1, human GPR119 (Homo sapiens, UniProt Q8TDV5)
T1 construct: expression vector for human GPR119 cDNA (Acc. No. NP_848566); expressed in transfected cells
T1 sequence (Q8TDV5 1-335): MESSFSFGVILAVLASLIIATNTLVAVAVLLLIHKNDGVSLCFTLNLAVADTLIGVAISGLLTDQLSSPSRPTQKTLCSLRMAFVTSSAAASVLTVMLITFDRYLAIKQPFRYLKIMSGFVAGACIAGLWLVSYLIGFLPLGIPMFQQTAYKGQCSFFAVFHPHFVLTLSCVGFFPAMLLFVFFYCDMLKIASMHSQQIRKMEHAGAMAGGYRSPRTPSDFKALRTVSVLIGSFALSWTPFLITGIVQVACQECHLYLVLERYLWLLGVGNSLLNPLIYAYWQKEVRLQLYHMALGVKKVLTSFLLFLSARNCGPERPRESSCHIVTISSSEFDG
Assay: AlphaScreen cAMP assay in Min-6/hGPR119 cells (activation of GPR119, intracellular cAMP)
Type: cell-based
Conditions: MIN6 cells stably transfected with human GPR119; cAMP by AlphaScreen after 45 minutes incubation at room temperature
Summary of the method: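 MIN6 cells stably expressing human GPR119, seeded 24 h before treatment; compounds applied 45 min at ~20 °C in Hepes-buffered saline pH 7.4 with 0.5 mM IBMX, 0.1% BSA, 1% DMSO final. Intracellular cAMP measured by AlphaScreen.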

Row | Structure (SMILES) | EC50 [nM]
1 | Cc1nn(C)cc1-c1ccc2c(c1)CC(C1CCN(C(=O)OC(C)C)CC1)O2 (stereo not drawn) [Example 171] | 582
2 | CC(C)OC(=O)N1CCC(C2Cc3cc(-c4ccc(CN(C)S(C)(=O)=O)cc4)ccc3O2)CC1 (stereo not drawn) [Example 172] | 288
3 | CC(C)OC(=O)N1CCC(C2Cc3cc(-c4cnc(NC(=O)C(C)(C)C)s4)ccc3O2)CC1 (stereo not drawn) [Example 173] | 373
4 | CNc1ncc(-c2ccc3c(c2)CC(C2CCN(C(=O)OC(C)C)CC2)O3)cn1 (stereo not drawn) [Example 174] | 610
5 | COc1cnc(-c2ccc3c(c2)CC(C2CCN(C(=O)OC(C)C)CC2)O3)nc1 (stereo not drawn) [Example 175] | 3310
6 | CC(C)OC(=O)N1CCC(C2Cc3cc(-c4cnccn4)ccc3O2)CC1 (stereo not drawn) [Example 176] | 489
7 | CC(=O)Nc1ncc(-c2ccc3c(c2)CC(C2CCN(C(=O)OC(C)C)CC2)O3)s1 (stereo not drawn) [Example 177] | 201
8 | CC(=O)Nc1nc(C)c(-c2ccc3c(c2)CC(C2CCN(C(=O)OC(C)C)CC2)O3)s1 (stereo not drawn) [Example 178] | 1200
9 | COc1cc(-c2ccc3c(c2)CC(C2CCN(C(=O)OC(C)C)CC2)O3)ccc1NC(C)=O (stereo not drawn) [Example 179] | 118
